According to ChEMBL document CHEMBL1201862, “PubChem BioAssay data set” (2004):
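How tested: cells in 96-well plates exposed to compound for 48 hours at five concentrations. GI50 marks 50% less growth.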 Activity calls are given as the source filed them. Cut-off read from the data, not from the text of the source: active = GI50 up to about 1.1 µM and inactive = higher.

What was measured:
Experiment in all cases: inhibition of tumour cell growth, NCI panel, 48 h
[1] = tested on: 786-0
[2] = tested on: A498
[3] = tested on: A549
[4] = tested on: ACHN
[5] = tested on: CAKI-1
[6] = tested on: CCRF-CEM
[7] = tested on: COLO 205
[8] = tested on: DLD-1
[9] = tested on: DMS-114
[10] = tested on: DMS-273
[11] = tested on: EKVX
[12] = tested on: HCC 2998
[13] = tested on: HCT-116
[14] = tested on: HCT-15
[15] = tested on: HL-60
[16] = tested on: HOP-18
[17] = tested on: HOP-62
[18] = tested on: HOP-92
[19] = tested on: HT-29
[20] = tested on: IGROV-1
[21] = tested on: K562
[22] = tested on: KM-20L2
[23] = tested on: KM12
[24] = tested on: LOX IMVI
[25] = tested on: LXFL 529
[26] = tested on: M14
[27] = tested on: MOLT-4
[28] = tested on: Malme-3M
[29] = tested on: NCI-H226
[30] = tested on: NCI-H23
[31] = tested on: NCI-H460
[32] = tested on: NCI-H522
[33] = tested on: OVCAR-3
[34] = tested on: OVCAR-5
[35] = tested on: OVCAR-8
[36] = tested on: RPMI-8226
[37] = tested on: RXF 393
[38] = tested on: RXF 631
[39] = tested on: SF-268
[40] = tested on: SF-295
[41] = tested on: SF-539
[42] = tested on: SK-MEL-28
[43] = tested on: SK-MEL-2
[44] = tested on: SK-MEL-5
[45] = tested on: SK-OV-3
[46] = tested on: SN12C
[47] = tested on: SNB-19
[48] = tested on: SNB-75
[49] = tested on: SNB-78
[50] = tested on: SR
[51] = tested on: SW-620
[52] = tested on: TK-10
[53] = tested on: U-251
[54] = tested on: UACC-257
[55] = tested on: UACC-62
[56] = tested on: UO-31
[57] = tested on: XF498

NC(=O)OCC(COc1ccc(Cl)cc1)OC(=O)c1cc([N+](=O)[O-])cc([N+](=O)[O-])c1 (configuration not stated)
GI50 [1]: 41.6 µM (inactive)
GI50 [2]: > 100 µM (inactive)
GI50 [3]: > 100 µM (inactive)
GI50 [4]: > 100 µM (inactive)
GI50 [5]: > 100 µM (inactive)
GI50 [6]: 97.3 µM (inactive)
GI50 [7]: 39 µM (inactive)
GI50 [8]: 55.2 µM (inactive)
GI50 [9]: 35.1 µM (inactive)
GI50 [10]: > 100 µM (inactive)
GI50 [11]: > 100 µM (inactive)
GI50 [12]: > 100 µM (inactive)
GI50 [13]: 35.8 µM (inactive)
GI50 [14]: 33.5 µM
GI50 [15]: > 100 µM (inactive)
GI50 [16]: > 100 µM (inactive)
GI50 [17]: > 100 µM (inactive)
GI50 [18]: > 100 µM (inactive)
GI50 [19]: > 100 µM (inactive)
GI50 [20]: > 100 µM (inactive)
GI50 [21]: 37.2 µM (inactive)
GI50 [22]: > 100 µM (inactive)
GI50 [23]: > 100 µM (inactive)
GI50 [24]: 17.9 µM (inactive)
GI50 [25]: > 100 µM (inactive)
GI50 [26]: > 100 µM (inactive)
GI50 [27]: > 100 µM (inactive)
GI50 [28]: > 100 µM (inactive)
GI50 [29]: > 100 µM (inactive)
GI50 [30]: > 100 µM (inactive)
GI50 [31]: 40.6 µM (inactive)
GI50 [32]: 79.3 µM (inactive)
GI50 [33]: > 100 µM (inactive)
GI50 [34]: > 100 µM (inactive)
GI50 [35]: > 100 µM (inactive)
GI50 [36]: > 100 µM (inactive)
GI50 [37]: > 100 µM (inactive)
GI50 [38]: > 100 µM (inactive)
GI50 [39]: > 100 µM (inactive)
GI50 [40]: > 100 µM (inactive)
GI50 [41]: > 100 µM (inactive)
GI50 [42]: > 100 µM (inactive)
GI50 [43]: 71.6 µM (inactive)
GI50 [44]: > 100 µM (inactive)
GI50 [45]: > 100 µM (inactive)
GI50 [46]: > 100 µM (inactive)
GI50 [47]: > 100 µM (inactive)
GI50 [48]: > 100 µM (inactive)
GI50 [49]: > 100 µM (inactive)
GI50 [50]: > 100 µM (inactive)
GI50 [51]: 13.2 µM (inactive)
GI50 [52]: > 100 µM (inactive)
GI50 [53]: > 100 µM (inactive)
GI50 [54]: > 100 µM (inactive)
GI50 [55]: > 100 µM (inactive)
GI50 [56]: > 100 µM (inactive)
GI50 [57]: 58.2 µM (inactive)
